# Where a name gives a salt, the structure may show the parent alone. Read-outs that look alike come from different tables or passages of the source.
# Experiments:
# [1] = Stability of simulated plasma; type: physicochemical, rat; conditions: simulated plasma samples; freeze-thaw cycles, room temperature storage and autosampler storage; found to be stable
# [2] = Pharmacokinetic drug-drug interaction study of BBR, TOFA and FIGA in rats; type: in vivo, Sprague-Dawley rats
# [3] = cited from earlier work
# [4] = cited from earlier work; remark: listed apart in the source
# [5] = poor solubility and permeability; cited from earlier work
# [6] = TOFA combined with BBR compared to TOFA alone
# [7] = FIGA co-administered with itraconazole
# [8] = FIGA co-administered with rifampin
# [9] = FIGA combined with berberine hydrochloride compared to FIGA alone
SMILES,relative errors (RE %) of stability assessment [1],"decrease in AUC(0-t) [2, 6]","increase in CL [2, 6]","increase in time to peak concentration [2, 6]","increase of Cmax [3, 7]","increase of bioavailability [3, 7]","reduction of Cmax [3, 8]","reduction of bioavailability [3, 8]","decrease in CL [2, 9]","decrease in Tmax [2, 9]","increase in AUC(0-t) [2, 9]","increase in Cmax [2, 9]",effect of concomitant TOFA and FIGA on the pharmacokinetic parameters of BBR ([2]; BBR with vs without TOFA or FIGA),oral bioavailability ([4]; ref 20),oral bioavailability ([4]; ref 35),Biopharmaceutics Classification System class [5]
"C[C@@H]1CCN(C(=O)CC#N)C[C@@H]1N(C)c1ncnc2[nH]ccc12 [TOFA, Tofacitinib]",less than 15.0%,1.76 fold,1.63 fold,2.49 fold,,,,,,,,,,,,
"O=C(Nc1nc2cccc(-c3ccc(CN4CCS(=O)(=O)CC4)cc3)n2n1)C1CC1 [FIGA, Filgotinib]",less than 15.0%,,,,64%,45%,26%,27%,1.64 fold,2.09 fold,1.67 fold,2.26 fold,,,,
"COc1ccc2cc3[n+](cc2c1OC)CCc1cc2c(cc1-3)OCO2 [BBR, berberine hydrochloride]",less than 15.0%,,,,,,,,,,,,no significant differences,5%,lower than 5%,Class IV

# — PMC12168975 (Drug Design, Development and Therapy, 2025)
